Measured values: ChEMBL document CHEMBL6096662, “Discovery and structure-activity relationship study of nicotinamide derivatives as DNA demethylase ALKBH2 inhibitors” (Eur J Med Chem, 2025)

Legend:
U-87 MG = assay: Anti-viability activity against human U87 cells by MTT assay; assay type: functional, cell-based, U-87MG ATCC
[1] = target: T1, DNA oxidative demethylase ALKBH2 (Homo sapiens, UniProt Q6NS38); assay: Inhibition of ALKBH2 (56 to 261 residues)(unknown origin) extracted from Escherichia coli BL21 (DE3) using 5'-GAAGACCT(1meA)GGCGTCC-3'/5'- CTGGGACGCCTAGGTCTTCACTG-3' as substrate incubated for 30 mins by FP assay
T1 sequence (Q6NS38 whole entry): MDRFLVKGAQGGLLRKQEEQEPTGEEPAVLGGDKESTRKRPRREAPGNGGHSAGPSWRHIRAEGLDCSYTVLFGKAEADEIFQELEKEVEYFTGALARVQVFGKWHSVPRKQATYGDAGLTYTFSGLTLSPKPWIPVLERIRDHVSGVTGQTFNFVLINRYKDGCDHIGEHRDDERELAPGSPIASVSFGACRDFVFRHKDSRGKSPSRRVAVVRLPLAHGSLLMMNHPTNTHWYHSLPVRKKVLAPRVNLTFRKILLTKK

[2] = target: T1, DNA oxidative demethylase ALKBH2; assay: Binding affinity to ALKBH2 (56 to 261 residues)(unknown origin) assessed as dissociation constant by ITC assay
[3] = target: T1, DNA oxidative demethylase ALKBH2; assay: Inhibition of ALKBH2 (56 to 261 residues)(unknown origin) extracted from Escherichia coli BL21 (DE3) using 5meC DNA as substrate by FP assay
[4] = target: T1, DNA oxidative demethylase ALKBH2; assay: Inhibition of demethylase activity of ALKBH2 (56 to 261 residues)(unknown origin) extracted from Escherichia coli BL21 (DE3) using 1meA dsDNA as substrate incubated for 30 mins in presence of alpha-KG by methylation-sensitive restriction enzyme digestion assay
[5] = Inhibition of demethylase activity of ALKBH1 (19 to 369 residues)(unknown origin) extracted from Escherichia coli BL21 (DE3) using 6meA unpaired dsDNA as substrate incubated for 30 mins by methylation-sensitive restriction enzyme digestion assay; set-up: species or system Homo sapiens
[6] = target: T2, Alpha-ketoglutarate-dependent dioxygenase alkB homolog 3 (Homo sapiens, UniProt Q96Q83); assay: Inhibition of demethylase activity of ALKBH3 (70 to 286 residues)(unknown origin) extracted from Escherichia coli BL21 (DE3) using 1meA dsDNA as substrate incubated for 30 mins by methylation-sensitive restriction enzyme digestion assay
T2 sequence (Q96Q83 whole entry): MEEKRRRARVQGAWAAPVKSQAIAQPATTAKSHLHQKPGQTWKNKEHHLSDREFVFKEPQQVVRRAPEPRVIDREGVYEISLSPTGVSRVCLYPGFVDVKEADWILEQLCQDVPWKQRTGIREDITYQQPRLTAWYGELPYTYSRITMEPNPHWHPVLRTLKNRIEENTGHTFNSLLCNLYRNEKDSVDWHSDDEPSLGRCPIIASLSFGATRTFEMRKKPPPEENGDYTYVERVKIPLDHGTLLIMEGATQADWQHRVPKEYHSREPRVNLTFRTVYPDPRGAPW

RNA demethylase ALKBH5 = RNA demethylase ALKBH5 (Homo sapiens, UniProt Q6P6C2); assay: Inhibition of demethylase activity of ALKBH5 (66 to 292 residues)(unknown origin) extracted from Escherichia coli BL21 (DE3) using 6meA dsDNA as substrate incubated for 30 mins by methylation-sensitive restriction enzyme digestion assay
[7] = target: Alpha-ketoglutarate-dependent dioxygenase FTO (Homo sapiens, UniProt Q9C0B1); assay: Inhibition of demethylase activity of FTO (35 to 505 residues)(unknown origin) extracted from Escherichia coli BL21 (DE3) using 6meA dsDNA as substrate incubated for 30 mins by methylation-sensitive restriction enzyme digestion assay
Chain of Alpha-ketoglutarate-dependent dioxygenase FTO (Q9C0B1 whole entry, the tested form may be a part): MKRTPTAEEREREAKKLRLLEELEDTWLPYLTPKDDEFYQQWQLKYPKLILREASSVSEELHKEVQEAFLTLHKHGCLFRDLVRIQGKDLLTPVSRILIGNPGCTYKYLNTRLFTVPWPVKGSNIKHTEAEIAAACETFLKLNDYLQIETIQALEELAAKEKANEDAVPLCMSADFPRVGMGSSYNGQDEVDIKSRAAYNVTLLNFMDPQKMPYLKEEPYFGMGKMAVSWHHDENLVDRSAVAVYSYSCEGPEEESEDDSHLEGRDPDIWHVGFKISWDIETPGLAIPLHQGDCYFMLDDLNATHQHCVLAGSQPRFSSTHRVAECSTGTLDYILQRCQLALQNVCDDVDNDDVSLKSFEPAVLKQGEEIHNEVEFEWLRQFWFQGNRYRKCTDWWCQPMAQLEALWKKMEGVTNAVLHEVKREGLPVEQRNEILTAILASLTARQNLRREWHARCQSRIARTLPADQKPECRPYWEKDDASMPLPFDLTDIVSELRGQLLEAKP

Chain of RNA demethylase ALKBH5 (Q6P6C2 whole entry, the tested form may be a part): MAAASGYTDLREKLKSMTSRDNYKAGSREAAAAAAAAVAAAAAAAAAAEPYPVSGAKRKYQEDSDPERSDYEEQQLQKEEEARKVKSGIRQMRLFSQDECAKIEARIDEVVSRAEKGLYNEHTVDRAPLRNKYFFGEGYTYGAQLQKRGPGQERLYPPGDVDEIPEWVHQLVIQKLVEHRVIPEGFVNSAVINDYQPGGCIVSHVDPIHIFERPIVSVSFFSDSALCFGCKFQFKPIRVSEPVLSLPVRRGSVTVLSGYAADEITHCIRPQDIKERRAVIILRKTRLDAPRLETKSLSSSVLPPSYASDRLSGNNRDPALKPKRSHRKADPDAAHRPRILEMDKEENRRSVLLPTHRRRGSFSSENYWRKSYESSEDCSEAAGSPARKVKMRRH

CCOC(=O)c1cnn(-c2ccc(C(=O)NC(c3ccccc3)C(C)(C)C)cn2)c1 (stereo not drawn)
IC50 (U-87 MG): 4560 nM

CC(C)(C)C(NC(=O)c1ccc(-n2cc(C(=O)O)cn2)nc1)c1ccccc1 (stereo not drawn)
IC50 [1]: 31 nM
Kd [2]: 226 nM
IC50 [3]: 47 nM
IC50 [4]: 1480 nM
IC50 [5]: > 200000 nM
IC50 [6]: > 200000 nM
IC50 (RNA demethylase ALKBH5): > 200000 nM
IC50 [7]: > 200000 nM
IC50 (U-87 MG): 103000 nM

COC1CCN(C(=O)c2ccc(-n3cc(C(=O)O)cn3)nc2)C1 (stereo not drawn)
IC50 [1]: 378 nM

O=C(O)c1cnn(-c2ccccc2)c1
IC50 [1]: 86700 nM

O=C(O)c1cnn(-c2ccc(C(=O)N3CCCC(c4ccccc4)C3)cn2)c1 (stereo not drawn)
IC50 [1]: 73 nM
